Measured values: patent US20090035345A1, “Nuclear Receptors Agonists for Treatment of Atherosclerosis and/or Related Cardiovascular Disease” (ACADEMISCH MEDISCH CENTRUM, BUREAU, priority 2005, published 2009)

Legend:
[1] = system: human SMCs; experiment: DNA synthesis assay ([3H]thymidine incorporation) in FBS-stimulated cultured SMCs; assay type: cell-based; settings: for DNA synthesis in SMCs: increasing concentrations of C-DIM
Method: (§1) Human SMCs were explanted from umbilical cord arteries. Cells were cultured in DMEM (Invitrogen Life Technology, Breda, The Netherlands) with 10% (v/v) fetal bovine serum (FBS) with penicillin and streptomycin (Invitrogen). Cells were used at passages five to seven. […] To determine cellular viability, cells were washed with PBS and subsequently incubated in medium in the presence of 0.5-mg/ml 3-(4,5-dimethylthiazol-2-yl)-2,5-diphenyltetrazolium bromide (MTT; Sigma Diagnostics, St. Louis). After two hours, medium was discarded, formazan crystals were dissolved in isopropanol and optical density was measured at 590 nm. Apoptosis was induced by incubating cells for 24 hours in medium with 0.25 μM staurosporine (Sigma). Subsequently, SMCs were fixed, stained with Hoechst dye and the relative number of apoptotic nuclei was determined.
SMCs were seeded in 24-well plates at 1−4×10^4 cells per well and reached 60% to 70% confluency after 24 hours. SMCs were made quiescent by incubation for 24 hours in FBS-free medium. 6-MP was dissolved in dimethylsulfoxide and applied one hour before FBS stimulation. SMCs were stimulated for 24 hours with 10% (v/v) FBS and subsequently cells were labeled for 18 hours with 0.25 μCi/well [methyl-3H]thymidine (Amersham Biosciences, Buckinghamshire, UK). Incorporated radioactivity was precipitated for 30 min at 4° C. with 10% (w/v) trichloroacetic acid, washed twice with 5% (w/v) trichloroacetic acid, and dissolved in 0.5 N NaOH (0.5 mL per well). Incorporated [^3H]thymidine was measured by liquid-scintillation counting.
(§2) The following small interfering (si)RNA sequences were used: Nur77 siRNA, 5′-CAG UCC AGC CAU GCU CCU C dTdT-3′, as described previously^20, and control siRNA, 5′-CAG ACG AGC CUU GCU CGU C dTdT-3′ (Ambion Inc., Austin, Tex.). Five μg of siRNA was transfected into 0.5−1×10^6 SMCs, using Nucleofector reagent for SMCs (Amaxa) as per the manufacturer's recommendations. Total mRNA was isolated five days after transfection, using the absolutely mRNA miniprep kit (Stratagene, La Jolla, Calif.). Subsequent cDNA synthesis was performed using the iScript cDNA synthesis kit (Biorad, Hercules, Calif.). Real-time polymerase chain reaction (PCR) was performed using SYBR green mix (Biorad) in the MyIQ System (Biorad). Primers for Nur77 were as follows: (forward) 5′-[…]-3′ and (reverse) 5′-[…]-3′. As a control for equal amount of first strand cDNA in different samples we corrected for Ribosomal Phosphoprotein (P0) mRNA levels, which were determined with the following primers (forward) 5′-[…]-3′ and (reverse) 5′-[…]-3′.
as §2, with “iscript” for “iScript”

[2] = system: TR3-like factors; settings: Chintharlapalli et al., J Biol. Chem. 2005; cited from earlier work
[3] = system: human SMCs; experiment: Apoptosis of SMCs, Hoechst staining of nuclei; assay type: cell-based; settings: 24 hours
Method: as §1

[4] = system: human SMCs; experiment: SMC viability by MTT assay; assay type: cell-based; settings: quiescent SMCs, 24 hours
Method: as §1

SMILES | DNA synthesis in SMCs ([1]; serum) | activity of TR3-like factors [2] | effectiveness in inhibiting DNA synthesis compared with the other C-DIMs ([1]; serum, increasing concentrations) | inhibition of DNA synthesis ([1]; SMCs transfected with Nur77 (TR3)-specific siRNA) | inhibition of DNA synthesis ([1]; SMCs transfected with control siRNA) | induction of apoptosis ([3]; SMCs, staurosporine 0.25 μM) | apoptosis (apoptotic nuclei) ([3]; quiescent SMCs) | cellular viability / cytotoxicity (MTT) [4] | reduction of number of viable cells (MTT) [4]
FC(F)(F)c1ccc(C(c2c[nH]c3ccccc23)c2c[nH]c3ccccc23)cc1 [C-DIM-CF3] | inhibit DNA synthesis in SMCs dose dependently | increase the activity of TR3-like factors | – | – | – | – | – | – | –
c1ccc(C(c2c[nH]c3ccccc23)c2c[nH]c3ccccc23)cc1 [C-DIM-H] | inhibit DNA synthesis in SMCs dose dependently | increase the activity of TR3-like factors | less effective | – | – | – | – | – | –
COc1ccc(C(c2c[nH]c3ccccc23)c2c[nH]c3ccccc23)cc1 [C-DIM-OCH3] | inhibit DNA synthesis in SMCs dose dependently | increase the activity of TR3-like factors | – | 40.1% | 49.7% | – | – | – | –
CN[C@@H]1C[C@H]2O[C@@](C)([C@@H]1OC)n1c3ccccc3c3c4c(c5c6ccccc6n2c5c31)C(=O)NC4 [staurosporine] | – | – | – | – | – | induces apoptosis | 50%±4% | reduces cell viability | 35%
